Measured values taken from ChEMBL document CHEMBL1137813, “An extract of Tagetes lucida and its phenolic constituents as antioxidants” (J Nat Prod, 2002).

Test system: Radical scavenging activity
Test: Antioxidant activity assessed as DPPH radical scavenging activity after 20 mins by UV-visible spectrophotometry
Assay type: functional

EC50 [µg]	SMILES
4.6	O=c1c(O)c(-c2ccc(O)c(O)c2)oc2cc(O[C@@H]3O[C@H](CO)[C@@H](O)[C@H](O)[C@H]3O)c(O)c(O)c12
10.1	Cc1c(C)c2c(c(C)c1O)CC[C@@](C)(CCC[C@H](C)CCC[C@H](C)CCCC(C)C)O2 [ALPHA-TOCOPHEROL]
4.4	O=c1c(O)c(-c2ccc(O)cc2)oc2cc(O)cc(O)c12 [KAEMPFEROL]
4.8	C[C@@H]1O[C@@H](OC[C@H]2O[C@@H](Oc3c(-c4ccc(O)c(O)c4)oc4cc(O)cc(O)c4c3=O)[C@H](O)[C@@H](O)[C@@H]2O)[C@H](O)[C@H](O)[C@H]1O [RUTIN]
3	O=C(O)/C=C/c1ccc(O)c(O)c1 [CAFFEIC ACID]
6.9	O=c1c(O)c(-c2ccc(O)cc2)oc2cc(O[C@@H]3O[C@H](CO)[C@@H](O)[C@H](O)[C@H]3O)c(O)c(O)c12

SMILES	EC50 [µg]
O=c1c(O)c(-c2ccc(O)c(O)c2)oc2cc(O)cc(O)c12 [QUERCETIN]	2.3
O=C(O)c1cc(O)c(O)c(O)c1 [GALLIC ACID]	1.2
